Measured values as given in patent US7504400B2, “MTP inhibiting aryl piperydines or piperazines substituted with 5-membered heterocycles” (Janssen Pharmaceutica N.V., priority 2004, dated 2009).

Tested on: Secretion of ApoB
Assay: Quantification of the secretion of ApoB in HepG2 cells
Format: cell-based
Settings: Homo sapiens, HepG2, 24 h, 24 hours of incubation with test compound, immunoprecipitation of apoB from medium, read-out: pIC50 value (=-log IC50 value), secretion of ApoB (converted)
Experimental: HepG2 cells were cultured in 24-well plates in MEM Rega 3 containing 10% fetal calf serum. At 70% confluency, the medium was changed and the test compound or carrier (DMSO, 0.4% final concentration) was added. After 24 hours of incubation, the medium was transferred to Eppendorf tubes and cleared by centrifugation. A sheep antibody directed against either apoB was added to the supernatant and the mixture was kept at 8° C. for 24 hours. Then, rabbit anti-sheep antibody was added and the immune complex was allowed to precipitate for 24 hours at 8° C. The immunoprecipitate was pelleted by centrifugation for 25 minutes at 1320 g and washed twice with a buffer containing 40 mM Mops, 40 mM NaH2PO4, 100 mM NaF, 0.2 mM DTT, 5 mM EDTA, 5 mM EGTA, 1% Triton-X-100, 0.5% sodium deoxycholate (DOC), 0.1% SDS, 0.2 μM leupeptin and 0.2 μM PMSF. Radioactivity in the pellet was quantified by liquid scintillation-counting. The IC50 values are usually converted to pIC50 values (=−log IC50 value) for ease of use.

Row | IC50 | Structure (SMILES)
1 | 31.6 to 316 nM | CCCCCNC(=O)C(CN1CCN(c2ccc(-n3cnn(C(C)C)c3=O)cc2)CC1)c1ccccc1 (centres unmarked) [Compound 109]
2 | 31.6 to 316 nM | CCC(C)n1ncn(-c2ccc(N3CCN(C(C(=O)NCCC#N)c4ccccc4)CC3)cc2)c1=O (centres unmarked) [Compound 110]
3 | 316 to 3160 nM | CCCCCNC(=O)C(c1ccccc1)N1CCN(c2ccc(-n3c(C)nn(C(C)C)c3=O)cc2)CC1 (centres unmarked) [Compound 111]
4 | 316 to 3160 nM | Cc1nn(C(C)C)c(=O)n1-c1ccc(N2CCN(C(C(=O)Nc3ccccc3)c3ccccc3)CC2)cc1 (centres unmarked) [Compound 112]
5 | 31.6 to 316 nM | CCNC(=O)C(c1ccccc1)N1CCN(c2ccc(-n3ncn(C(C)C)c3=O)cc2)CC1 (centres unmarked) [Compound 113]
6 | 316 to 3160 nM | CCCNC(=O)C(c1ccccc1)N1CCN(c2ccc(-n3ncn(C(C)C)c3=O)cc2)CC1 (centres unmarked) [Compound 114]
7 | 316 to 3160 nM | CC(C)NC(=O)C(c1ccccc1)N1CCN(c2ccc(-n3ncn(C(C)C)c3=O)cc2)CC1 (centres unmarked) [Compound 115]
8 | 316 to 3160 nM | C=CCNC(=O)C(c1ccccc1)N1CCN(c2ccc(-n3ncn(C(C)C)c3=O)cc2)CC1 (centres unmarked) [Compound 116]
9 | 316 to 3160 nM | COCCNC(=O)C(c1ccccc1)N1CCN(c2ccc(-n3ncn(C(C)C)c3=O)cc2)CC1 (centres unmarked) [Compound 117]
10 | 316 to 3160 nM | CCCCNC(=O)C(c1ccccc1)N1CCN(c2ccc(-n3ncn(C(C)C)c3=O)cc2)CC1 (centres unmarked) [Compound 118]
11 | 316 to 3160 nM | CC(C)CNC(=O)C(c1ccccc1)N1CCN(c2ccc(-n3ncn(C(C)C)c3=O)cc2)CC1 (centres unmarked) [Compound 119]
12 | 316 to 3160 nM | CCCCCNC(=O)C(c1ccccc1)N1CCN(c2ccc(-n3ncn(C(C)C)c3=O)cc2)CC1 (centres unmarked) [Compound 120]
13 | 316 to 3160 nM | CC(C)n1cnn(-c2ccc(N3CCN(C(C(=O)NCc4ccccn4)c4ccccc4)CC3)cc2)c1=O (centres unmarked) [Compound 121]
14 | 316 to 3160 nM | CC(C)n1cnn(-c2ccc(N3CCN(C(C(=O)NCC(F)(F)F)c4ccccc4)CC3)cc2)c1=O (centres unmarked) [Compound 122]
15 | 31.6 to 316 nM | CC(C)n1cnn(-c2ccc(N3CCN(C(C(=O)NCc4ccccc4)c4ccccc4)CC3)cc2)c1=O (centres unmarked) [Compound 123]
16 | 31.6 to 316 nM | CCCn1ncn(-c2ccc(N3CCN(C(C(=O)Nc4ccccc4)c4ccccc4)CC3)cc2)c1=O (centres unmarked) [Compound 124]
17 | 31.6 to 316 nM | Cc1cnc(NC(=O)C(c2ccccc2)N2CCN(c3ccc(-n4cnn(C(C)C)c4=O)cc3)CC2)s1 (centres unmarked) [Compound 125]
18 | 316 to 3160 nM | CC(C)n1ncn(-c2ccc(N3CCN(C(C(=O)NCc4ccc(N)cc4)c4ccccc4)CC3)cc2)c1=O (centres unmarked) [Compound 126]

Row | IC50 | Structure (SMILES)
19 | 316 to 3160 nM | CC(C)n1ncn(-c2ccc(N3CCN(C(C(=O)NCc4nc5ccccc5[nH]4)c4ccccc4)CC3)cc2)c1=O (centres unmarked) [Compound 127]
20 | 31.6 to 316 nM | CCCNC(=O)C(CN1CCN(c2ccc(-n3cnn(C(C)C)c3=O)cc2)CC1)c1ccccc1 (centres unmarked) [Compound 128]
21 | 316 to 3160 nM | CC(C)n1ncn(-c2ccc(N3CCN(CC(C(=O)Nc4ccccc4)c4ccccc4)CC3)cc2)c1=O (centres unmarked) [Compound 129]
22 | 316 to 3160 nM | CC(C)n1ncn(-c2ccc(N3CCN(CC(C(=O)NCc4ccccc4)c4ccccc4)CC3)cc2)c1=O (centres unmarked) [Compound 130]
23 | 316 to 3160 nM | COCCNC(=O)C(c1ccccc1)N1CCN(c2ccc(-n3cnn(C(C)C)c3=O)cc2)CC1 (centres unmarked) [Compound 131]
24 | 316 to 3160 nM | CC(C)n1ncn(-c2ccc(N3CCN(C(C(=O)NCCC#N)c4ccccc4)CC3)cc2)c1=O (centres unmarked) [Compound 132]
25 | 316 to 3160 nM | CCNC(=O)C(c1ccccc1)(c1ccccc1)N1CCN(c2ccc(-n3cnn(C(C)C)c3=O)cc2)CC1 [Compound 133]
26 | 316 to 3160 nM | CCCNC(=O)C(c1ccccc1)(c1ccccc1)N1CCN(c2ccc(-n3cnn(C(C)C)c3=O)cc2)CC1 [Compound 134]
27 | 316 to 3160 nM | CC(C)NC(=O)C(c1ccccc1)(c1ccccc1)N1CCN(c2ccc(-n3cnn(C(C)C)c3=O)cc2)CC1 [Compound 135]
28 | 316 to 3160 nM | CNC(=O)C(c1ccccc1)N1CCN(c2ccc(-n3cnn(C(C)C)c3=O)cc2)CC1 (centres unmarked) [Compound 136]
29 | 316 to 3160 nM | CC(C)n1ncn(-c2ccc(N3CCN(C(C(=O)N(C)C)c4ccccc4)CC3)cc2)c1=O (centres unmarked) [Compound 137]
30 | 316 to 3160 nM | CCOC(=O)C(CN1CCN(c2ccc(-n3cnn(C(C)C)c3=O)cc2)CC1)c1ccccc1 (centres unmarked) [Compound 138]
31 | 31.6 to 316 nM | CCNC(=O)C(c1ccccc1)N1CCC(c2ccc(-n3cnn(C(C)C)c3=O)cc2)CC1 (centres unmarked) [Compound 139]
32 | 31.6 to 316 nM | CC(C)NC(=O)C(c1ccccc1)N1CCC(c2ccc(-n3cnn(C(C)C)c3=O)cc2)CC1 (centres unmarked) [Compound 140]
33 | 31.6 to 316 nM | CNC(=O)C(c1ccccc1)N1CCC(c2ccc(-n3cnn(C(C)C)c3=O)cc2)CC1 (centres unmarked) [Compound 142]
34 | 31.6 to 316 nM | CC(C)n1ncn(-c2ccc(C3CCN(C(C(=O)NCC(F)(F)F)c4ccccc4)CC3)cc2)c1=O (centres unmarked) [Compound 143]
35 | 316 to 3160 nM | CC(C)n1ncn(-c2ccc(C3CCN(C(C(=O)N(C)C)c4ccccc4)CC3)cc2)c1=O (centres unmarked) [Compound 144]

More lines, now with the values behind:

Row | Structure (SMILES) | IC50
36 | CC(C)NC(=O)C(CN1CCN(c2ccc(-n3cnn(C(C)C)c3=O)cc2)CC1)c1ccccc1 (centres unmarked) [Compound 74] | 31.6 to 316 nM
37 | CC(C)n1ncn(-c2ccc(N3CCN(C(C(=O)NCc4cccs4)c4ccccc4)CC3)cc2)c1=O (centres unmarked) [Compound 75] | 316 to 3160 nM
38 | CC(C)n1ncn(-c2ccc(N3CCN(C(C(=O)NCc4cccc(C(F)(F)F)c4)c4ccccc4)CC3)cc2)c1=O (centres unmarked) [Compound 77] | 31.6 to 316 nM
39 | COc1cc(CNC(=O)C(c2ccccc2)N2CCN(c3ccc(-n4cnn(C(C)C)c4=O)cc3)CC2)cc(OC)c1OC (centres unmarked) [Compound 78] | 316 to 3160 nM
40 | CC(C)n1ncn(-c2ccc(N3CCN(C(C(=O)NCc4c(F)cccc4F)c4ccccc4)CC3)cc2)c1=O (centres unmarked) [Compound 79] | 316 to 3160 nM
41 | CC(C)n1ncn(-c2ccc(N3CCN(C(C(=O)NCCNc4ccccc4)c4ccccc4)CC3)cc2)c1=O (centres unmarked) [Compound 80] | 31.6 to 316 nM
42 | CC(C)n1ncn(-c2ccc(N3CCN(C(C(=O)NC4CC4)c4ccccc4)CC3)cc2)c1=O (centres unmarked) [Compound 81] | 316 to 3160 nM
43 | COc1ccc(CCNC(=O)C(c2ccccc2)N2CCN(c3ccc(-n4cnn(C(C)C)c4=O)cc3)CC2)cc1OC (centres unmarked) [Compound 82] | 31.6 to 316 nM
44 | CC(C)n1ncn(-c2ccc(N3CCN(C(C(=O)NCc4cccc5ccccc45)c4ccccc4)CC3)cc2)c1=O (centres unmarked) [Compound 83] | 31.6 to 316 nM
45 | CC(C)n1ncn(-c2ccc(N3CCN(C(C(=O)NCCCN(C)c4ccccc4)c4ccccc4)CC3)cc2)c1=O (centres unmarked) [Compound 84] | 316 to 3160 nM
46 | CC(C)n1ncn(-c2ccc(N3CCN(C(C(=O)NCCCc4ccccc4)c4ccccc4)CC3)cc2)c1=O (centres unmarked) [Compound 85] | 31.6 to 316 nM
47 | Cc1nn(C(C)C)c(=O)n1-c1ccc(N2CCN(C(C(=O)NCc3ccccc3)c3ccccc3)CC2)cc1 (centres unmarked) [Compound 86] | 316 to 3160 nM
48 | CCCn1ncn(-c2ccc(N3CCC(C(C(=O)NC(C)C)c4ccccc4)CC3)cc2)c1=O (centres unmarked) [Compound 87] | 316 to 3160 nM
49 | CCCCn1ncn(-c2ccc(N3CCC(C(C(=O)NC(C)C)c4ccccc4)CC3)cc2)c1=O (centres unmarked) [Compound 88] | 31.6 to 316 nM
50 | CCCCCn1ncn(-c2ccc(N3CCC(C(C(=O)NC(C)C)c4ccccc4)CC3)cc2)c1=O (centres unmarked) [Compound 89] | 316 to 3160 nM
51 | CC(C)Cn1ncn(-c2ccc(N3CCC(C(C(=O)NC(C)C)c4ccccc4)CC3)cc2)c1=O (centres unmarked) [Compound 90] | 316 to 3160 nM
52 | CC(C)NC(=O)C(c1ccccc1)C1CCN(c2ccc(-n3cnn(CC4CC4)c3=O)cc2)CC1 (centres unmarked) [Compound 91] | 316 to 3160 nM

Row | Structure (SMILES) | IC50
53 | CC(C)NC(=O)C(c1ccccc1)C1CCN(c2ccc(-n3cnn(C/C=C/c4ccccc4)c3=O)cc2)CC1 (centres unmarked) [Compound 92] | 316 to 3160 nM
54 | CCC(C)n1ncn(-c2ccc(N3CCN(C(C(=O)NCCO)c4ccccc4)CC3)cc2)c1=O (centres unmarked) [Compound 94] | 316 to 3160 nM
55 | C=CCNC(=O)C(c1ccccc1)N1CCN(c2ccc(-n3cnn(C(C)CC)c3=O)cc2)CC1 (centres unmarked) [Compound 95] | 31.6 to 316 nM
56 | CCCCCNC(=O)C(c1ccccc1)N1CCN(c2ccc(-n3cnn(C(C)CC)c3=O)cc2)CC1 (centres unmarked) [Compound 96] | 31.6 to 316 nM
57 | COc1ccc(CNC(=O)C(c2ccccc2)N2CCN(c3ccc(-n4cnn(C(C)C)c4=O)cc3)CC2)c(OC)c1 (centres unmarked) [Compound 97] | 31.6 to 316 nM
58 | CC(C)n1ncn(-c2ccc(N3CCN(CC(C(=O)NCC(F)(F)F)c4ccccc4)CC3)cc2)c1=O (centres unmarked) [Compound 98] | 31.6 to 316 nM
59 | CCCNC(=O)C(c1ccccc1)C1CCN(c2ccc(-n3cnn(C(C)C)c3=O)cc2)CC1 (centres unmarked) [Compound 99] | 31.6 to 316 nM
60 | CNC(=O)C(CN1CCN(c2ccc(-n3cnn(C(C)C)c3=O)cc2)CC1)c1ccccc1 (centres unmarked) [Compound 100] | 31.6 to 316 nM
61 | CCNC(=O)C(CN1CCN(c2ccc(-n3cnn(C(C)C)c3=O)cc2)CC1)c1ccccc1 (centres unmarked) [Compound 101] | 31.6 to 316 nM
62 | CC(C)n1ncn(-c2ccc(N3CCN(CC(C(=O)NCCC#N)c4ccccc4)CC3)cc2)c1=O (centres unmarked) [Compound 102] | 316 to 3160 nM
63 | C=CCNC(=O)C(CN1CCN(c2ccc(-n3cnn(C(C)C)c3=O)cc2)CC1)c1ccccc1 (centres unmarked) [Compound 103] | 31.6 to 316 nM
64 | CC(C)n1ncn(-c2ccc(N3CCN(CC(C(=O)NC4CC4)c4ccccc4)CC3)cc2)c1=O (centres unmarked) [Compound 104] | 316 to 3160 nM
65 | COCCNC(=O)C(CN1CCN(c2ccc(-n3cnn(C(C)C)c3=O)cc2)CC1)c1ccccc1 (centres unmarked) [Compound 105] | 316 to 3160 nM
66 | CCCCNC(=O)C(CN1CCN(c2ccc(-n3cnn(C(C)C)c3=O)cc2)CC1)c1ccccc1 (centres unmarked) [Compound 106] | 31.6 to 316 nM
67 | CC(C)CNC(=O)C(CN1CCN(c2ccc(-n3cnn(C(C)C)c3=O)cc2)CC1)c1ccccc1 (centres unmarked) [Compound 107] | 316 to 3160 nM
68 | COC(CNC(=O)C(CN1CCN(c2ccc(-n3cnn(C(C)C)c3=O)cc2)CC1)c1ccccc1)OC (centres unmarked) [Compound 108] | 316 to 3160 nM
